According to paper PMC10845205, “Discovery of novel antibacterial agent for the infected wound treatment: all-hydrocarbon stapling optimization of LL-37” (Theranostics, 2024):
Values after ≈ are worked out from the molar mass of the structure shown. Positions of bridges follow the written chain, without caps; N, C: chain ends. Non-standard residues stand in square brackets, D forms with d. Residues, ends and D or L forms follow the SMILES beside them. S5 = C=CCCC[C@](C)(N)C(=O)O

What was measured:
A. baumannii = settings: 24 h
Method: (§1) According to the protocol of Clinical & Laboratory Standards Institute, the minimum inhibitory concentration (MIC) of the linear and stapled peptides against a panel of gram-positive and gram-negative bacteria was determined by the broth microdilution method. […]
(§2) Bacterial strains and culture
(§3) Bacterial type stains ATCC 25923 S. aureus, ATCC 12228 S. epidermidis, ATCC […]
(§4) aeruginosa and ATCC 13883 K. pneumoniae were obtained from Shanghai Bioresource Collection Center. The bacterial culture medium was purchased from Oxoid and autoclaved according to the instructions from manufacturer. The isolated strains were cultured in Mueller Hinton II broth and continuously shaken at 140 rpm for 18 hours to the middle of the exponential growth phase at 37 °C with an OD value of 0.4-0.5.
(§5) Bacterial suspensions with an OD value of 0.1, approximately […], were then diluted for further assays.
(§6) The minimal inhibition concentration (MIC) of the linear and stapled peptides was determined using the microbroth dilution method from the Clinical and Laboratory Standards Institute (CLSI)[2, 3]. Bacterial suspensions of 10 6 CFU/mL were prepared in MH-II broth and peptide solutions at varying concentrations were prepared in phosphate buffer saline (PBS). Then 50 μL peptide solution and 50 μL bacterial suspension were mixed in a 96 -well plate. Plates were incubated for 24 hours at 37 °C.
(§7) 10 μL AlamarBlue cell viability reagent (ThermoFisher Scientific, UK) was added to each well, then the plate was re -incubated for a further 2 hours at 37 °C. The MIC was recorded as the minimum concentration of peptides required to completely in hibit bacteria growth. For serum stability assessment, the peptide solutions were pre - incubated with 50% human serum for 4 h before the MIC determination. Experiments were performed in 3 independent measurements. […]

E. coli = settings: 24 h
Method: as §1, §2, §3, §4, §5, §6, §7

E. faecalis = settings: 24 h
Method: as §1, §2, §3, §4, §5, §6, §7

K. pneumoniae = settings: 24 h
Method: as §1, §2, §3, §4, §5, §6, §7

P. aeruginosa = settings: 24 h
Method: as §1, §2, §3, §4, §5, §6, §7

S. aureus = settings: 24 h
Method: as §1, §2, §3, §4, §5, §6, §7

S. epidermidis = settings: 24 h
Method: as §1, §2, §3, §4, §5, §6, §7

Serum stability assay = type: in vitro ADME, human; settings: human serum, 2 mg/mL peptide in pH 7.4 PBS mixed with serum 1:4, 37 °C, up to 48 h, RP-HPLC UV 220 nm, 3 independent measurements
Source text: Maintaining high stability and presenting high compatibility in the complex physiological environment are important criterions for the clinical translation of AMPs. […] The derivatives were mixed with human serum in pH 7.4 PBS, simulating the degradation process of peptides by proteases in vivo. The percentages of intact derivatives were monitored and determined with time according to the PR-HPLC. […]
Serum stability of the linear and stapled peptides was examined by RP -HPLC as previously described. 2 mg/mL peptide solution was prepared in pH 7.4 PBS and incubated with human serum (Gemini, USA) to the final volume ratio of 1:4 at 37 °C.
At various time intervals, 50 μL mixture was added to 50 μL ethanol to terminate the enzymatic hydrolysis. After centrifugation at 10,000 rpm for 10 minutes under 4 °C, […]
the supernatant was collected and analyzed by RP-HPLC, with a UV detector monitored at 220 nm. Record the peak area of the intact peptide and calculate the percentage of remaining peptide based on the integrated area as, Peptide remaining (%) = peak area of remaining peptide/peak area of intact peptide×100%. […]

NIH-3T3 cell = settings: 24 h
Method: For development of the stapled KR-12 derivatives to treat bacterial infections in vivo, their cytotoxicity was examined via the CCK-8 assay, which could provide a quantitative assessment of cell viability based on the dehydrogenase activity. The mouse embryonic fibroblast NIH-3T3 cell was selected and incubated with various concentrations of KR-12 and its stapled derivatives.
Mouse embryonic fibroblast cells NIH-3T3 and mouse monocyte macrophage leukemia cells RAW264.7 were obtained from Shanghai Institute of Biochemistry and Cell Biology, Chinese Academy of Sciences. These two cells were maintained in DMEM and RPMI-1640, respectively. Both media were supplemented with 10% FBS and 1% 100 U/mL penicillin-streptomycin solution. Cells were maintained at 37 °C in a 5% CO2 and humidified incubator. Replace the culture medium every day until the cell grows to confluence. Cells were then treated with 0.25% trypsin–EDTA and split using fresh medium for either passage or analysis.
CCK-8 cell counting kit was utilized to examine the cytotoxicity of the linear and stapled peptides. NIH-3T3 cell was planked at a density of 1.5×10^4 cell/well in a 96 - well plate and incubated it for 24 hours at 37 °C. Cells were then treated with different concentrations of peptides in fresh DMEM and incubated for 24 hours before the addition of 10 μL CCK -8 and incubation for a further 1 hour. Measure the absorbance at 450nm using a microplate reader (BioTek, USA) and calculate the percentage of cell viability as: cell viability (%) = (Abspeptide-Absblank)/(Abscontrol-Absblank)×100%, where Abscontrol is the absorbance of cells treated with PBS and Abs blank is the absorbance of the cell-free medium. The data was fitted using the nonlinear regression within

Structure (SMILES) | MIC A. baumannii (A. baumannii) [mg/L] | MIC E. coli (E. coli) [mg/L] | MIC E. faecalis (E. faecalis) [mg/L] | MIC K. pneumoniae (K. pneumoniae) [mg/L] | MIC P. aeruginosa (P. aeruginosa) [mg/L] | MIC S. aureus (S. aureus) [mg/L] | MIC S. epidermidis (S. epidermidis) [mg/L] | TD50 (time at which 50% of the peptide is degraded in the presence of serum) (Serum stability assay) [h] | IC50 against NIH-3T3 cell (NIH-3T3 cell) [mg/L]
CC(=O)N[C@@H](CCCCN)C(=O)N[C@@H](CCCNC(=N)N)C(=O)N[C@@]1(C)CCCC=CCCC[C@@](C)(C(=O)N[C@@H](CCCCN)C(=O)N[C@@H](CC(=O)O)C(=O)N[C@@H](Cc2ccccc2)C(=O)N[C@@H](CC(C)C)C(=O)N[C@@H](CCCNC(=N)N)C(N)=O)NC(=O)[C@H](CCCNC(=N)N)NC(=O)[C@H](CCC(N)=O)NC(=O)[C@H](C(C)C)NC1=O [KR-12 (I3, I7)] (Ac-KR[S5]VQR[S5]KDFLR-NH2; staple 3-7) | 32 (≈ 19.5 µM) | 16 (≈ 9.77 µM) | 16 (≈ 9.77 µM) | 128 (≈ 78.2 µM) | 256 (≈ 156 µM) | 8 (≈ 4.89 µM) | 64 (≈ 39.1 µM) | 4.21 | 145.7 (≈ 89 µM)
CC[C@H](C)[C@H](NC(=O)[C@H](CCCNC(=N)N)NC(=O)[C@H](CCCCN)NC(C)=O)C(=O)N[C@H](C(=O)N[C@@H](CCC(N)=O)C(=O)N[C@@H](CCCNC(=N)N)C(=O)N[C@@]1(C)CCCC=CCCC[C@@](C)(C(=O)N[C@@H](CCCNC(=N)N)C(N)=O)NC(=O)[C@H](Cc2ccccc2)NC(=O)[C@H](CC(=O)O)NC(=O)[C@H](CCCCN)NC1=O)C(C)C [KR-12 (I7, L11)] (Ac-KRIVQR[S5]KDF[S5]R-NH2; staple 7-11) | 64 (≈ 39.1 µM) | 32 (≈ 19.5 µM) | 32 (≈ 19.5 µM) | 256 (≈ 156 µM) | 256 (≈ 156 µM) | 32 (≈ 19.5 µM) | 128 (≈ 78.2 µM) | 11.44 | 212.8 (≈ 130 µM)
CC[C@H](C)[C@@H]1NC(=O)[C@H](CCCNC(=N)N)NC(=O)[C@@](C)(NC(=O)[C@@H](NC(=O)[C@@H](NC(=O)[C@H](CCCNC(=N)N)NC(=O)[C@H](CCCCN)NC(C)=O)[C@@H](C)CC)C(C)C)CCCC=CCCC[C@@](C)(C(=O)N[C@@H](Cc2ccccc2)C(=O)N[C@@H](CC(C)C)C(=O)N[C@@H](CCCNC(=N)N)C(N)=O)NC(=O)[C@H](CCCCN)NC1=O [KR-12 (Q5, D9)] (Ac-KRIV[S5]RIK[S5]FLR-NH2; staple 5-9) | 16 (≈ 9.88 µM) | 8 (≈ 4.94 µM) | 8 (≈ 4.94 µM) | 128 (≈ 79 µM) | 64 (≈ 39.5 µM) | 8 (≈ 4.94 µM) | 16 (≈ 9.88 µM) | 8.91 | 168.5 (≈ 104 µM)
CC[C@H](C)[C@H](NC(=O)[C@]1(C)CCCC=CCCC[C@](C)(NC(=O)[C@H](CCCCN)NC(C)=O)C(=O)N[C@@H]([C@@H](C)CC)C(=O)N[C@@H](C(C)C)C(=O)N[C@@H](CCC(N)=O)C(=O)N1)C(=O)N[C@@H](CCCCN)C(=O)N[C@@H](CC(=O)O)C(=O)N[C@@H](Cc1ccccc1)C(=O)N[C@@H](CC(C)C)C(=O)N[C@@H](CCCNC(=N)N)C(N)=O [KR-12 (R2, R6)] (Ac-K[S5]IVQ[S5]IKDFLR-NH2; staple 2-6) | > 256 | >256 | 128 (≈ 82.5 µM) | > 256 | > 256 | 128 (≈ 82.5 µM) | 128 (≈ 82.5 µM) | 2.38 | 78.3 (≈ 50.5 µM)
